Experiments:
[1] = target: T1, IRAK4 protein in normal human PBMCs (Homo sapiens, UniProt Q9NWZ3); test: Degradation of IRAK4 protein in normal human PBMCs (AlphaLISA); format: cell-based; settings: 24 h incubation
T1 construct: host or cells: normal human PBMCs
T1 sequence (Q9NWZ3 1-460): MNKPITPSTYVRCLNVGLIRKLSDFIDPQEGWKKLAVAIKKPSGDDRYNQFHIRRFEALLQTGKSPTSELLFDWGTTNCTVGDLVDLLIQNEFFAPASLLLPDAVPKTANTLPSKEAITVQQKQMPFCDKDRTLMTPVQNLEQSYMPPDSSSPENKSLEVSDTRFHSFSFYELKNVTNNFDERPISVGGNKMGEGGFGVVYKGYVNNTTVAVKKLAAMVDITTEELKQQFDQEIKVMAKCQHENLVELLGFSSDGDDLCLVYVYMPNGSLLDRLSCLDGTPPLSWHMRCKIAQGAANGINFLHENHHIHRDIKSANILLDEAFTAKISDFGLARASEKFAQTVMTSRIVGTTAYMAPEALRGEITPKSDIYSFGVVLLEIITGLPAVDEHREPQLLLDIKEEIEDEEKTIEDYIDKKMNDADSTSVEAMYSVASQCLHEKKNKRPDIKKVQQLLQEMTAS
Protocol: The cryopreserved normal human PBMCs (Milestone, PB010C) were thawed and resuspended in RPMI 1640 medium (Gibco, A1049101) supplemented with 10% fetal bovine serum (Gibco, 10099141), 100 U/mL penicillin, and 100 µg/mL streptomycin (Gibco, 15140122). After 0.95 mL of cells were plated in each well of a 24-well cell culture plate, 50 µL of diluted compound solution was added to corresponding wells with cells, such that the final concentration of the compound fell within the range of 0.01-3000 nM. The final concentration of DMSO was 0.25%. After the compound-treated cell plate was incubated in an incubator at 37° C. with 5% CO2 for 24 h, the cells were collected into 1.5 mL centrifuge tubes and centrifuged at 1000 rpm at 4° C. for 5 min. The cell pellets were washed twice with 1×DPBS. The resuspended cells were lysed with 100 μL of lysis buffer, left to stand on ice for 30 min, and then centrifuged at 14000 g at 4° C. for 10 min. The samples of the cell lysate supernatant after centrifugation were cryopreserved at −80° C. before testing. The cell lysis buffer was a Western and IP cell lysis buffer (Beyotime, P0013) supplemented with 1 mM phenylmethylsulfonyl fluoride and a protease inhibitor cocktail (Beyotime, P1008).
The total protein concentrations of the cell lysate samples were determined using a BCA protein quantification kit (Tiangen, PA115-02).
The prepared PBMC lysate samples were assayed for IRAK4 concentrations using a human IRAK4 AlphaLISA assay kit (PerkinElmer, AL3117C) to determine the degradation effects of the compounds on IRAK4. The method is as follows:
5 μL of each of IRAK4 standard solutions with different concentrations and test samples of cell lysate supernatant were added to a white 384-well plate (PerkinElmer, 6007299), and then 10 μL of 5× anti-IRAK4 […] beads was added to each well (final concentration of 10 μg/mL). The plate was incubated at room temperature for 30 min. Then 10 μL of 5× biotin-labeled anti-IRAK4 antibody was added to each well (final concentration of 1 nM), and the plate was incubated at room temperature for another 60 min. Finally, 25 μL of 2× streptavidin-labeled donor beads was added to each well (final concentration of 40 μg/mL), and the plate was incubated at room temperature for another 30 min. After the incubation was completed, AlphaLISA signal values were measured on a microplate reader EnVision (PerkinElmer, 2105) in the AlphaScreen standard mode. A standard curve was plotted from the AlphaLISA signal values of the IRAK4 standard solutions with different concentrations, and the IRAK4 concentration of each cell lysate supernatant was determined according to the corresponding concentrations on the standard curve for the AlphaLISA signal values of the test samples and by performing corresponding correction on the total protein concentration of each sample obtained by BCA quantification. The degradation rates for the compounds at each concentration were calculated by comparing the IRAK4 concentration with that of the control group. Then non-linear curve fittings for logarithmic concentration-inhibition rate were performed using GraphPad Prism 8, and the DC50 and Dmax values of the compound were obtained.

IRAK4 kinase = target: T2, IRAK4 kinase (Homo sapiens, UniProt Q9NWZ3); test: IRAK4 kinase activity test (KinEASE-STK S1 HTRF kit); format: biochemical; settings: IRAK4 kinase 2.5 nM, 7 μM adenosine triphosphate, 37° C. 120 min
T2 construct: purchased Carna
T2 sequence (Q9NWZ3 1-460): T1 sequence (Q9NWZ3 1-460)
Protocol: Then 2.5 nM IRAK4 kinase (Carna), 1 μM biotinylated polypeptide substrate (Cisbio), and 7 μM adenosine triphosphate (Sigma-Aldrich) were sequentially added, and the mixtures were incubated at 37° C. for 120 min. Subsequently, an anti-phosphoserine/threonine antibody (Cisbio) conjugated with a europium element compound and streptavidin conjugated with a modified XL665 (Cisbio) were added to the reaction system to stop the reaction. After 1 h of incubation at room temperature, the fluorescence intensity of each well was measured at the excitation wavelength of 337 nm and the emission wavelengths of 620 nm and 665 nm with a microplate reader EnVision (PerkinElmer) in the HTRF mode, and Ratio values were calculated using the formula: Ratio=(665 nm/620 nm)×10^4. The inhibition rates of the compounds at each concentration were calculated by comparison with the fluorescence intensity ratio of the control group. Then non-linear curve fittings for logarithmic concentration-inhibition rate were performed using GraphPad Prism 7, and the IC50 values of the compounds were obtained.

Row | SMILES | DC50 [1] [nM] | Dmax [1] [%] | IC50 (IRAK4 kinase) [nM]
1 | Cc1ccc(C(=O)N2CCC3(CCN(C[C@H]4CC[C@H](n5cc(NC(=O)c6cnn7ccc(N8CCC[C@H](O)C8)nc67)c(C(F)F)n5)CC4)CC3)CC2)cc1N1CCC(=O)NC1=O [Example 27, N-(3-(difluoromethyl)-1-((1R,4S)-4-((9-(3-(2,4-dioxotetrahydropyrimidin-1(2H)-yl)-4-methylbenzoyl)-3,9-diazaspiro[5.5]undecan-3-yl)methyl)cyclohexyl)-1H-pyrazol-4-yl)-5-((S)-3-hydroxypiperidin-1-yl)pyrazolo[1,5-a]pyrimidine-3-carboxamide] | 0.28 | 97.8 | 2.98
2 | O=C1CCN(c2cc(C(=O)N3CCC(OCCCN4CCC(n5cc(NC(=O)c6cnn7ccc(N8C[C@H]9C[C@@H]8CO9)nc67)c(C(F)F)n5)CC4)CC3)ccc2Cl)C(=O)N1 [Example 31, 5-((1R,4R)-2-oxa-5-azabicyclo[2.2.1]heptan-5-yl)-N-(1-(1-(3-((1-(4-chloro-3-(2,4-dioxotetrahydropyrimidin-1(2H)-yl)benzoyl)piperidin-4-yl)oxy)propyl)piperidin-4-yl)-3-(difluoromethyl)-1H-pyrazol-4-yl)pyrazolo[1,5-a]pyrimidine-3-carboxamide] | 0.84 | 99.2 | –
3 | Cc1ccc(C(=O)N2CCC3(CCC(CN4CCC(n5cc(NC(=O)c6cnn7ccc(N8CCC[C@H](O)C8)nc67)c(C(F)F)n5)CC4)CC3)CC2)cc1N1CCC(=O)NC1=O [Example 25, (S)—N-(3-(difluoromethyl)-1-(1-((3-(3-(2,4-dioxotetrahydropyrimidin-1(2H)-yl)-4-methylbenzoyl)-3-azaspiro[5.5]undecan-9-yl)methyl)piperidin-4-yl)-1H-pyrazol-4-yl)-5-(3-hydroxypiperidin-1-yl)pyrazolo [1,5-a]pyrimidine-3-carboxamide] | 0.32 | 97.5 | –
4 | N[C@H]1CCCN(c2ccn3ncc(C(=O)Nc4cn(C5CCN(CC6CCC7(CC6)CCN(C(=O)c6ccc(Cl)c(N8CCC(=O)NC8=O)c6)CC7)CC5)nc4C(F)F)c3n2)C1 [Example 30, (S)-5-(3-aminopiperidin-1-yl)-N-(1-(1-((3-(4-chloro-3-(2,4-dioxotetrahydropyrimidin-1(2H)-yl)benzoyl)-3-azaspiro[5.5]undecan-9-yl)methyl)piperidin-4-yl)-3-(difluoromethyl)-1H-pyrazol-4-yl)pyrazolo [1,5-a]pyrimidine-3-carboxamide] | 1 | 100 | –
5 | O=C1CCN(c2cc(C(=O)N3CCC4(CCN(C[C@H]5CC[C@H](n6cc(NC(=O)c7cnn8ccc(N9C[C@H]%10C[C@@H]9CO%10)nc78)c(C(F)F)n6)CC5)CC4)CC3)ccc2Cl)C(=O)N1 [Example 2, 5-((1R,4R)-2-oxa-5-azabicyclo[2.2.1]heptan-5-yl)-N-(1-((1r,4R)-4-((9-(4-chloro-3-(2,4-dioxotetrahydropyrimidin-1(2H)-yl)benzoyl)-3,9-diazaspiro[5.5]undecan-3-yl)methyl)cyclohexyl)-3-(difluoromethyl)-1H-pyrazol-4-yl)pyrazolo[1,5-a]pyrimidine-3-carboxamide] | 1.56 | 99.1 | –
6 | Cc1ccc(C(=O)N2CCC3(CCC(CN4CCC(n5cc(NC(=O)c6cnn7ccc(N8CC9(COC9)C8)nc67)c(C(F)F)n5)CC4)CC3)CC2)cc1N1CCC(=O)NC1=O [Example 24, N-(3-(difluoromethyl)-1-(1-((3-(3-(2,4-dioxotetrahydropyrimidin-1(2H)-yl)-4-methylbenzoyl)-3-azaspiro[5.5]undecan-9-yl)methyl)piperidin-4-yl)-1H-pyrazol-4-yl)-5-(2-oxa-6-azaspiro[3.3]heptan-6-yl)pyrazolo[1,5-a]pyrimidine-3-carboxamide] | 0.48 | 96.2 | –

Continued by falling DC50 [1], values first:

Row | DC50 [1] [nM] | Dmax [1] [%] | IC50 (IRAK4 kinase) [nM] | SMILES
7 | 1.28 | 99 | – | O=C1CCN(c2cc(C(=O)N3CCC4(CCC(CN5CCC(n6cc(NC(=O)c7cnn8ccc(N9C[C@H]%10C[C@@H]9CO%10)nc78)c(C(F)F)n6)CC5)CC4)CC3)ccc2Cl)C(=O)N1 [Example 1, 5-((1R,4R)-2-oxa-5-azabicyclo[2.2.1]heptan-5-yl)-N-(1-(1-((3-(4-chloro-3-(2,4-dioxotetrahydropyrimidin-1(2H)-yl)benzoyl)-3-azaspiro[5.5]undecan-9-yl)methyl)piperidin-4-yl)-3-(difluoromethyl)-1H-pyrazol-4-yl)pyrazolo[1,5-a]pyrimidine-3-carboxamide]
8 | 1.11 | 98.1 | 17 | COc1ccc(C(=O)N2CCC(CCN(C)C[C@H]3CC[C@H](n4cc(NC(=O)c5cnn6ccc(N7CC8(COC8)C7)nc56)c(C(F)F)n4)CC3)CC2)cc1N1CCC(=O)NC1=O [Example 32, N-(3-(difluoromethyl)-1-((1R,4R)-4-(((2-(1-(3-(2,4-dioxotetrahydropyrimidin-1(2H)-yl)-4-methoxybenzoyl)piperidin-4-yl)ethyl)(methyl)amino)methyl)cyclohexyl)-1H-pyrazol-4-yl)-5-(2-oxa-6-azaspiro[3.3]heptan-6-yl)pyrazolo[1,5-a]pyrimidine-3-carboxamide]
9 | 0.6 | 98.8 | – | O=C1CCN(c2cc(C(=O)N3CCC4(CCC(CN5CCC(n6cc(NC(=O)c7cnn8ccc(N9CCNCC9)nc78)c(C(F)F)n6)CC5)CC4)CC3)ccc2Cl)C(=O)N1 [Example 5, N-(1-(1-((3-(4-chloro-3-(2,4-dioxotetrahydropyrimidin-1(2H)-yl)benzoyl)-3-azaspiro[5.5]undecan-9-yl)methyl)piperidin-4-yl)-3-(difluoromethyl)-1H-pyrazol-4-yl)-5-(piperazin-1-yl)pyrazolo[1,5-a]pyrimidine-3-carboxamide]
10 | 0.53 | 98.1 | – | Cc1ccc(C(=O)N2CCC3(CCC(CN4CCC(n5cc(NC(=O)c6cnn7ccc(N8CCS(=O)(=O)CC8)nc67)c(C(F)F)n5)CC4)CC3)CC2)cc1N1CCC(=O)NC1=O [Example 22, N-(3-(difluoromethyl)-1-(1-((3-(3-(2,4-dioxotetrahydropyrimidin-1(2H)-yl)-4-methylbenzoyl)-3-azaspiro[5.5]undecan-9-yl)methyl)piperidin-4-yl)-1H-pyrazol-4-yl)-5-(1,1-dioxothiomorpholinyl)pyrazolo[1,5-a]pyrimidine-3-carboxamide]
11 | 0.39 | 97.2 | – | O=C1CCN(c2cc(C(=O)N3CCC4(CCC(CN5CCC(n6cc(NC(=O)c7cnn8ccc(N9CCOCC9)nc78)c(C(F)F)n6)CC5)CC4)CC3)ccc2Cl)C(=O)N1 [Example 4, N-(1-(1-((3-(4-chloro-3-(2,4-dioxotetrahydropyrimidin-1(2H)-yl)benzoyl)-3-azaspiro[5.5]undecan-9-yl)methyl)piperidin-4-yl)-3-(difluoromethyl)-1H-pyrazol-4-yl)-5-morpholinopyrazolo[1,5-a]pyrimidine-3-carboxamide]

— patent US20260174878A1, “IRAK4 DEGRADATION AGENT AND USE THEREOF” (LEADINGTAC PHARMACEUTICAL (SHAOXING) CO., LTD., priority 2022, published 2026)
